Reference: US7446199B2, “Compositions useful as inhibitors of protein kinases” (Vertex Pharmaceuticals Incorporated, priority 2003, dated 2008)

Assays:
Format in all cases: biochemical
c-Met = c-Met (Homo sapiens, UniProt P08581); assay: Ki determination for the inhibition of c-Met, coupled enzyme system; details: 200 μM ATP, 10 μM polyGluTyr, 80 nM c-Met, 30° C.
Method: Compounds were screened for their ability to inhibit c-Met kinase activity using a standard coupled enzyme system (Fox et al., Protein Sci. 1998, 7, 2249). Reactions were carried out in a solution containing 100 mM HEPES (pH 7.5), 10 mM MgCl2, 25 mM NaCl, 300 μM NADH, 1 mM DTT, and 1.5% DMSO. Final substrate concentrations in the assay were 200 μM ATP (Sigma Chemicals, St Louis, Mo.) and 10 μM polyGluTyr (Sigma Chemical Company, St. Louis). Reactions were carried out at 30° C. and 80 nM c-Met. Final concentrations of the components of the coupled enzyme system were 2.5 mM phosphoenolpyruvate, 300 μM NADH, 30 μg/ml pyruvate kinase and 10 μg/ml lactate dehydrogenase.
An assay stock buffer solution was prepared containing all of the reagents listed above with the exception of ATP and a test compound of the present invention. The assay stock buffer solution (175 μl) was incubated in a 96 well plate with 5 μl of the test compound of the present invention at final concentrations spanning 0.006 μM to 12.5 μM at 30° C. for 10 minutes. Typically, a 12-point titration was conducted by preparing serial dilutions (from 10 mM compound stocks) with DMSO of the test compounds of the present invention in daughter plates. The reaction was initiated by the addition of 20 μl of ATP (final concentration 200 μM). Rates of reaction were obtained using a Molecular Devices Spectramax plate reader (Sunnyvale, Calif.) over 10 minutes at 30° C. The Ki values were determined from the rate data as a function of inhibitor concentration.

JAK3 = target: T1, JAK3 (Homo sapiens, UniProt P52333); assay: JAK3 inhibition assay (ELISA, Poly (Glu, Ala, Tyr) coated plates); details: 2 mM ATP, 60 minutes at 30° C.
T1 sequence (P52333 1-1124): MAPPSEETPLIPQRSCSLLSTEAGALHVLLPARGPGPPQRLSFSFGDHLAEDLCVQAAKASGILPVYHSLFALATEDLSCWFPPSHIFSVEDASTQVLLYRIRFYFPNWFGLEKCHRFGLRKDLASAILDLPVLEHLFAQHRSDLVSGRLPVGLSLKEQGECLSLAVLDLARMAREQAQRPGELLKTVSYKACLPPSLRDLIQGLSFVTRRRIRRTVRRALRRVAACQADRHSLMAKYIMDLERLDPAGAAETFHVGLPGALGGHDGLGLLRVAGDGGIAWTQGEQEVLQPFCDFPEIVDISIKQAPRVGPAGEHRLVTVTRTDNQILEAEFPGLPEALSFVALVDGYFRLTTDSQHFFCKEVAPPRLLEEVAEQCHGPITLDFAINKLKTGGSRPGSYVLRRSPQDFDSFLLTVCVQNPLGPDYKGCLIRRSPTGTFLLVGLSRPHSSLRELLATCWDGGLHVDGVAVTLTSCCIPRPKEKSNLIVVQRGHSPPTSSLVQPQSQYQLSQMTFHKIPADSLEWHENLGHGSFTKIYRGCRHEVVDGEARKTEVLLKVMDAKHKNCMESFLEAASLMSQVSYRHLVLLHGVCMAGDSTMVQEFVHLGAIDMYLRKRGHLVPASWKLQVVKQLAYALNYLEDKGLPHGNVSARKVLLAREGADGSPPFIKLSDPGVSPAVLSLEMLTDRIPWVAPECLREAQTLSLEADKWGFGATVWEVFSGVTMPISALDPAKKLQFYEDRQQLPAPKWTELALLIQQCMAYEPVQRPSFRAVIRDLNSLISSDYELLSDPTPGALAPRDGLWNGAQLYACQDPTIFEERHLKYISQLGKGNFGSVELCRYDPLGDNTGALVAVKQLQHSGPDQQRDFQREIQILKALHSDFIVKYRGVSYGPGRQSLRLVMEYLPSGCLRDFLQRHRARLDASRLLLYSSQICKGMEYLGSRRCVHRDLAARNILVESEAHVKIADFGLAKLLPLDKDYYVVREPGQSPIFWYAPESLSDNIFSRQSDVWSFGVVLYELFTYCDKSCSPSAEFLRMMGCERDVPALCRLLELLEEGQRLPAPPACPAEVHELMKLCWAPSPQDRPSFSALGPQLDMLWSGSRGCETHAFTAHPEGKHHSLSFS
Method: Compound inhibition of JAK3 was assayed by the method described by G. R. Brown, et al., Bioorg. Med. Chem. Lett. 2000, vol. 10, pp 575-579 in the following manner. Into Maxisorb plates, previously coated at 4° C. with Poly (Glu, Ala, Tyr) 6:3:1 then washed with phosphate buffered saline 0.05% and Tween (PBST), was added 2 mM ATP, 5 mM MgCl2, and a solution of compound in DMSO. The reaction was started with JAK enzyme and the plates incubated for 60 minutes at 30° C. The plates were then washed with PBST, […] HRP-Conjugated 4G10 antibody was added, and the plate incubated for 90 minutes at 30° C. The plate was again washed with PBST, […] TMB solution is added, and the plates were incubated for another 30 minutes at 30° C. Sulfuric acid ([…] of 1M) was added to stop the reaction and the plate is read at 450 nm to obtain the optical densities for analysis to determine IC50 values.

KDR = KDR (Homo sapiens, UniProt P35968); assay: KDR enzyme assay, coupled enzyme assay; details: 300 μM ATP, 10 μM poly E4Y, 30 nM KDR, 37° C.
Method: Compounds were screened for their ability to inhibit KDR using a standard coupled enzyme assay (Fox et al., Protein Sci., (1998) 7, 2249). Assays were carried out in a mixture of 200 mM HEPES 7.5, 10 mM MgCl2, 25 mM NaCl, 1 mM DTT and 1.5% DMSO. Final substrate concentrations in the assay were 300 μM ATP (Sigma Chemicals) and 10 μM poly E4Y (Sigma). Assays were carried out at 37° C. and 30 nM KDR. Final concentrations of the components of the coupled enzyme system were 2.5 mM phosphoenolpyruvate, 200 μM NADH, 30 μg/ML pyruvate kinase and 10 μg/ml lactate dehydrogenase.
An assay stock buffer solution was prepared containing all of the reagents listed above, with the exception of ATP and the test compound of interest. 177 μl of the stock solution was placed in a 96 well plate followed by addition of 3 μl of 2 mM DMSO stock containing the test compound (final compound concentration 30 μM). The plate was preincubated for about 10 minutes at 37° C. and the reaction initiated by addition of 20 μl of ATP (final concentration 300 μM). Rates of reaction were obtained using a Molecular Devices plate reader (Sunnyvale, Calif.) over a 5 minute read time at 37° C.

GSK-3β, (AA 1-420) = GSK-3β, (AA 1-420) (Homo sapiens, UniProt P49841); assay: GSK-3 inhibition assay, coupled enzyme system; details: 20 μM ATP, 300 μM peptide, 20 nM GSK-3b, 30° C.; read-out: Ki values (GSK3)
Method: Compounds of the present invention were screened for their ability to inhibit GSK-3β, (AA 1-420) activity using a standard coupled enzyme system (Fox et al., Protein Sci. 1998, 7, 2249). Reactions were carried out in a solution containing 100 mM HEPES (pH 7.5), 10 mM MgCl2, 25 mM NaCl, 300 μM NADH, 1 mM DTT and 1.5% DMSO. Final substrate concentrations in the assay were 20 μM ATP (Sigma Chemicals, St Louis, Mo.) and 300 μM peptide (American Peptide, Sunnyvale, Calif.). Reactions were carried out at 30° C. and 20 nM GSK-3b. Final concentrations of the components of the coupled enzyme system were 2.5 mM phosphoenolpyruvate, 300 μM NADH, 30 μg/ml pyruvate kinase and 10 μg/ml lactate dehydrogenase.
An assay stock buffer solution was prepared containing all of the reagents listed above with the exception of ATP and the test compound of the present invention. The assay stock buffer solution (175 μl) was incubated in a 96 well plate with 5 μl of the test compound of the present invention at final concentrations spanning 0.002 μM to 30 μM at 30° C. for 10 min. Typically, a 12 point titration was conducted by preparing serial dilutions (from 10 mM compound stocks) with DMSO of the test compounds of the present invention in daughter plates. The reaction was initiated by the addition of 20 μl of ATP (final concentration 20 μM). Rates of reaction were obtained using a Molecular Devices Spectramax plate reader (Sunnyvale, Calif.) over 10 min at 30° C. The Ki values were determined from the rate data as a function of inhibitor concentration.

Chain of KDR (P35968 20-1356): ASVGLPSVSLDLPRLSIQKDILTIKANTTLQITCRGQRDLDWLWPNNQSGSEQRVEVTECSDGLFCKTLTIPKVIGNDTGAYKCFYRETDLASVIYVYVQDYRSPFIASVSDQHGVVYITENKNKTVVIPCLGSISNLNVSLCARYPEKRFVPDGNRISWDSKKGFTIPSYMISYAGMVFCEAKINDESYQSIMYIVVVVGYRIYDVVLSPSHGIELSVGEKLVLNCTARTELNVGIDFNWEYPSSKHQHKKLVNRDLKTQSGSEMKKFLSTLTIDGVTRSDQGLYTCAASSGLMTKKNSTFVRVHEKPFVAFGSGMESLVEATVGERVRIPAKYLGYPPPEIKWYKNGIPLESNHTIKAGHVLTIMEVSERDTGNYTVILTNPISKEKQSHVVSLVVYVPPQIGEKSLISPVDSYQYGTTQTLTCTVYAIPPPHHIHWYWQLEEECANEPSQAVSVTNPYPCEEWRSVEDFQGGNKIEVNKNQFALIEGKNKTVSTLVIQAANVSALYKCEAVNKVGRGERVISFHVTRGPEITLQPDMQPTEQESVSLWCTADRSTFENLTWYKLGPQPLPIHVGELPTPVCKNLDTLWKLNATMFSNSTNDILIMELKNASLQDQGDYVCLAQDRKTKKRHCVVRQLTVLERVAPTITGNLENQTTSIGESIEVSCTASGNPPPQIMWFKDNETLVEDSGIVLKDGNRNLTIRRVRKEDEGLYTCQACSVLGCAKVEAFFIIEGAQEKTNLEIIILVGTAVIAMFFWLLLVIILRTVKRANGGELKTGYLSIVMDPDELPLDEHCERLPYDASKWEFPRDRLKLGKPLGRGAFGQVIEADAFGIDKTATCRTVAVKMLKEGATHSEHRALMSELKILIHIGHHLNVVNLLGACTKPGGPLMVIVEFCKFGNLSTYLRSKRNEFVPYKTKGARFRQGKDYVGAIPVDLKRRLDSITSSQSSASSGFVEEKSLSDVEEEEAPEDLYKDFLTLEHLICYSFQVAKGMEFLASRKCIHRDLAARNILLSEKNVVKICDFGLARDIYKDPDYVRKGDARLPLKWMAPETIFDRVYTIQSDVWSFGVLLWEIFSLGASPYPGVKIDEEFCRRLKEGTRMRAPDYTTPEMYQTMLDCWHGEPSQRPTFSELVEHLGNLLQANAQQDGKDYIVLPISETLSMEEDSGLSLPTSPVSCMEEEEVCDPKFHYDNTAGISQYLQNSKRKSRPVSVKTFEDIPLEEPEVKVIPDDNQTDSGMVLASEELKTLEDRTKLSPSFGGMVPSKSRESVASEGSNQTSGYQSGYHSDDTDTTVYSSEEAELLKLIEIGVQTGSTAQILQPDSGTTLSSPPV
Chain of GSK-3β, (AA 1-420) (P49841 whole entry, the tested form may be a part): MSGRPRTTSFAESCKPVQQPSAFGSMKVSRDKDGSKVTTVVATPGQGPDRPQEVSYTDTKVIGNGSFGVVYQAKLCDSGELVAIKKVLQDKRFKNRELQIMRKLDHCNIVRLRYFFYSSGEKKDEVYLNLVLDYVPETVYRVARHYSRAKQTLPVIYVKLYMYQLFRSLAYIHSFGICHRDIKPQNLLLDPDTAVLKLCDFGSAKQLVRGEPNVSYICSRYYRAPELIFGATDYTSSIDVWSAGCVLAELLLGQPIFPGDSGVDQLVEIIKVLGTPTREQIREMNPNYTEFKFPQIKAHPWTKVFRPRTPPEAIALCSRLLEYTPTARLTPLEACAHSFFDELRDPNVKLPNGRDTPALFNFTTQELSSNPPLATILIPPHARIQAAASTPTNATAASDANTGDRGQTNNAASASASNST
Chain of c-Met (P08581 25-1390): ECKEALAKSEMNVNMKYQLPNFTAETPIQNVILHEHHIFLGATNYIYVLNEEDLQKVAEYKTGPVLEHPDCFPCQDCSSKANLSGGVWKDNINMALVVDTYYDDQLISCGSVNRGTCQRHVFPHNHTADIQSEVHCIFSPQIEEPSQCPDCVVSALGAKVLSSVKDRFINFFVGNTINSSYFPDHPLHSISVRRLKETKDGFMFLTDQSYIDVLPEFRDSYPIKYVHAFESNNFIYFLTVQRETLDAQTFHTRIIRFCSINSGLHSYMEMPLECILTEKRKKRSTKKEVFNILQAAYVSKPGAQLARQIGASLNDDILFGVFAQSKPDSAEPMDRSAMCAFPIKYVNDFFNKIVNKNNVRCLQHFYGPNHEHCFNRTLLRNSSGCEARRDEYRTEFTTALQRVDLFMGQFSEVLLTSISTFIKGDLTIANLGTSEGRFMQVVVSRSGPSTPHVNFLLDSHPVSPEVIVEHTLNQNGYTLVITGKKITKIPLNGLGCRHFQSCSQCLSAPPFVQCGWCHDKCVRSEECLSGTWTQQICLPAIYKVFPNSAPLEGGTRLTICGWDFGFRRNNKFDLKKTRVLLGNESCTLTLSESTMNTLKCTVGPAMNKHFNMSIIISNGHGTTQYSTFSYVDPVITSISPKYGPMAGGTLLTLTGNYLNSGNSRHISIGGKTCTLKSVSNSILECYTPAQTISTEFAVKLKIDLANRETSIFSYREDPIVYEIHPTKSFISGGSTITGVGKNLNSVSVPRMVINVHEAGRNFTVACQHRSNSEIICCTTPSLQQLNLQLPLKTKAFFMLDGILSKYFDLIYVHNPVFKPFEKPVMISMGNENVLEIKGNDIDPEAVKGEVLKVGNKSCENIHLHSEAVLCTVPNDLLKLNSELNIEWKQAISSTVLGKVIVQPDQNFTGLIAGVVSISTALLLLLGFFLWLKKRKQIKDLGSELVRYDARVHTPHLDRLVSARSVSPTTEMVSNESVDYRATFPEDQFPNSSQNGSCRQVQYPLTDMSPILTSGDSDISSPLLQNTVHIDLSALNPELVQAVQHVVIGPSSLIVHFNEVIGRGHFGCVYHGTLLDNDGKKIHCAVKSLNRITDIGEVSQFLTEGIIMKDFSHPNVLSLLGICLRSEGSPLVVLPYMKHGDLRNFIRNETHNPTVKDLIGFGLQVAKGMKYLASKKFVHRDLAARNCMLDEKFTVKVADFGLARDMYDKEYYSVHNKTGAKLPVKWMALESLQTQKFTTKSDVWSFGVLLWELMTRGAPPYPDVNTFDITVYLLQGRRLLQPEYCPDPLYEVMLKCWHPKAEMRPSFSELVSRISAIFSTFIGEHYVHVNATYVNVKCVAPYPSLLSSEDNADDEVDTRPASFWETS

Compound	Ki (c-Met)	Ki (JAK3)	Ki (KDR)	Ki (GSK-3β, (AA 1-420))
COc1cccc(-c2cnoc2-c2c[nH]c3ncccc23)c1OC [Compound 51, 3-[4-(2,3-Dimethoxy-phenyl)-isoxazol-5-yl]-1H-pyrrolo[2,3-b]pyridine]	1000 to 12500 nM	200 to 1000 nM	1000 to 12500 nM	
Fc1cccc(-n2nnnc2-c2c[nH]c3ncccc23)c1F [Compound 11, 3-[1-(2,3-Difluoro-phenyl)-1H-tetrazol-5-yl]-1H-pyrrolo [2,3-b]pyridine]	1000 to 12500 nM			
N#Cc1ccc(-c2cnc3[nH]cc(-c4oncc4-c4cccc(F)c4F)c3c2)cc1 [Compound 89, 4-{3-[4-(2,3-Difluoro-phenyl)-isoxazol-5-yl]-1H-pyrrolo [2,3-b]pyridin-5-yl}-benzonitrile]	< 200 nM		< 200 nM	200 to 1000 nM
CN(C)c1ccc2c(-c3oncc3-c3cccc(F)c3F)n[nH]c2n1 [Compound 32]	1000 to 12500 nM			
Fc1cccc(-c2cnoc2-c2c[nH]c3nc(Cl)ccc23)c1F [Compound 101, 6-Chloro-3-[4-(2,3-difluoro-phenyl)-isoxazol-5-yl]-1H-pyrrolo[2,3-b]pyridine]	1000 to 12500 nM			
c1ccc(-c2cnoc2-c2c[nH]c3ncccc23)nc1 [Compound 50, 3-(4-Pyridin-2-yl-isoxazol-5-yl)-1H-pyrrolo[2,3-b]pyridine]		1000 to 12500 nM		
Fc1cccc(-c2cnoc2-c2c[nH]c3nc(N4CCCC4)ccc23)c1F [Compound 100, 3-[4-(2,3-Difluoro-phenyl)-isoxazol-5-yl]-6-pyrrolidin-1-yl-1H-pyrrolo[2,3-b]pyridine]	1000 to 12500 nM			
Fc1cccc(-c2cnoc2-c2c[nH]c3c(F)cccc23)c1F [Compound 33, 3-[4-(2,3-Difluoro-phenyl)-isoxazol-5-yl]-7-fluoro-1H-indole]				1000 to 12500 nM
c1cncc(-c2cnoc2-c2c[nH]c3ncccc23)c1 [Compound 52, 3-(4-Pyridin-3-yl-isoxazol-5-yl)-1H-pyrrolo[2,3-b]pyridine]	1000 to 12500 nM	1000 to 12500 nM		1000 to 12500 nM
CCNc1ccc2c(-c3oncc3-c3cccc(F)c3F)n[nH]c2n1 [Compound 30, {3-[4-(2,3-Difluoro-phenyl)-isoxazol-5-yl]-1H-pyrazolo[3,4-b]pyridin-6-yl}-ethyl-amine]	1000 to 12500 nM			

More lines, now with the values ahead:

Ki (c-Met)	Ki (JAK3)	Ki (KDR)	Ki (GSK-3β, (AA 1-420))	Compound
1000 to 12500 nM				Fc1cccc(-n2cnnc2-c2c[nH]c3ncccc23)c1F [Compound 107, 3-[4-(2,3-Difluoro-phenyl)-4H-[1,2,4]triazol-3-yl]-1H-pyrrolo[2,3-b]pyridine]
200 to 1000 nM		200 to 1000 nM	1000 to 12500 nM	Fc1cccc(-c2cnoc2-c2n[nH]c3ncc(Br)cc23)c1F [Compound 148]
1000 to 12500 nM				COC(=O)Cn1ccc2c(-c3oncc3-c3cccc(F)c3F)c[nH]c2c1=O [Compound 146, {3-[4-(2,3-Difluoro-phenyl)-isoxazol-5-yl]-7-oxo-1,7-di hydro-pyrrolo[2,3-c]pyridin-6-yl}-acetic acid methyl ester]
1000 to 12500 nM				O=c1c2[nH]cc(-c3oncc3-c3cccc(F)c3F)c2ccn1Cc1ccccc1 [Compound 147, 6-Benzyl-3-[4-(2,3-difluoro-phenyl)-isoxazol-5-yl]-1,6-dihydro-pyrrolo[2,3-c]pyridin-7-one]
1000 to 12500 nM			1000 to 12500 nM	[O-][n+]1cccc2c(-c3oncc3-c3cccc(F)c3F)c[nH]c21 [Compound 151]
